The values that follow are results of earlier work, collected in US5317003A, “Herbicidal compositions comprising glyphosate salts and alkoxylated quaternary amine surfactants” (Monsanto Company, priority 1992, dated 1994).

For `O=C(O)CNCP(=O)(O)O` [N-phosphonomethylglycine], the solubility in water result is recorded as “relatively insoluble”.
